Reference: ChEMBL document CHEMBL1909046, “DrugMatrix in vitro pharmacology data”

How the values were obtained:
Substance-P receptor = Substance-P receptor (Homo sapiens, UniProt P25103); format: cell membranes, Membrane; conditions: cho; further: in other assays of this panel Not Active means under 50% inhibition at 10 µM
[1] = target: C-C chemokine receptor type 2 (Homo sapiens, UniProt P41597); format: cell membranes, CHO-K1, Membrane; conditions: cho-k1; further: in other assays of this panel Not Active means under 50% inhibition at 10 µM
C-C chemokine receptor type 2, sequence (P41597 whole entry): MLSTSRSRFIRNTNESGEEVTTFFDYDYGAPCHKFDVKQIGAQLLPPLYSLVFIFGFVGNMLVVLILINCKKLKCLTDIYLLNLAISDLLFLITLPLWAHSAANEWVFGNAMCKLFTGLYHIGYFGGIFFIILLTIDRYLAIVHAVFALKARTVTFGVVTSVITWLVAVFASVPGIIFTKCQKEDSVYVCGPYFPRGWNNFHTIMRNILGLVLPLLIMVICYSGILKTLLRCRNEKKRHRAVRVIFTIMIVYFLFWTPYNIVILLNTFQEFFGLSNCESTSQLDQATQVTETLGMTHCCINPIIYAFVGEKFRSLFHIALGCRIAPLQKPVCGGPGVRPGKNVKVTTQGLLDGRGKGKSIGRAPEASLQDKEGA

D(3) dopamine receptor = D(3) dopamine receptor (Homo sapiens, UniProt P35462); assay: DRUGMATRIX: Dopamine D3 radioligand binding (ligand: [3H] Spiperone); format: cell membranes, CHO, Membrane
D(3) dopamine receptor, sequence (P35462 whole entry): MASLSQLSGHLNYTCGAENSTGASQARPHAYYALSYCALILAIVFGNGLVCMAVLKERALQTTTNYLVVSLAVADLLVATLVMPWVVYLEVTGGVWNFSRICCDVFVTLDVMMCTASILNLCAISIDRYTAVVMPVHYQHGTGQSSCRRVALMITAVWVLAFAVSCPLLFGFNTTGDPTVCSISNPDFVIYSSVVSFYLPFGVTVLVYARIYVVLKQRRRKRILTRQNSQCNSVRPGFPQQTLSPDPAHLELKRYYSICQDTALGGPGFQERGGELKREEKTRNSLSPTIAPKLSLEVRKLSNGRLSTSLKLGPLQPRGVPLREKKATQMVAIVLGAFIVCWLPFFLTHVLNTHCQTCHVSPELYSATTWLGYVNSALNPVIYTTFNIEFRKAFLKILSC

Insulin receptor = Insulin receptor (Rattus norvegicus, UniProt P15127); format: cell membranes, Wistar, Liver, Membrane; further: in other assays of this panel Not Active means under 50% inhibition at 10 µM
Insulin receptor, sequence (P15127 27-759 limits assumed): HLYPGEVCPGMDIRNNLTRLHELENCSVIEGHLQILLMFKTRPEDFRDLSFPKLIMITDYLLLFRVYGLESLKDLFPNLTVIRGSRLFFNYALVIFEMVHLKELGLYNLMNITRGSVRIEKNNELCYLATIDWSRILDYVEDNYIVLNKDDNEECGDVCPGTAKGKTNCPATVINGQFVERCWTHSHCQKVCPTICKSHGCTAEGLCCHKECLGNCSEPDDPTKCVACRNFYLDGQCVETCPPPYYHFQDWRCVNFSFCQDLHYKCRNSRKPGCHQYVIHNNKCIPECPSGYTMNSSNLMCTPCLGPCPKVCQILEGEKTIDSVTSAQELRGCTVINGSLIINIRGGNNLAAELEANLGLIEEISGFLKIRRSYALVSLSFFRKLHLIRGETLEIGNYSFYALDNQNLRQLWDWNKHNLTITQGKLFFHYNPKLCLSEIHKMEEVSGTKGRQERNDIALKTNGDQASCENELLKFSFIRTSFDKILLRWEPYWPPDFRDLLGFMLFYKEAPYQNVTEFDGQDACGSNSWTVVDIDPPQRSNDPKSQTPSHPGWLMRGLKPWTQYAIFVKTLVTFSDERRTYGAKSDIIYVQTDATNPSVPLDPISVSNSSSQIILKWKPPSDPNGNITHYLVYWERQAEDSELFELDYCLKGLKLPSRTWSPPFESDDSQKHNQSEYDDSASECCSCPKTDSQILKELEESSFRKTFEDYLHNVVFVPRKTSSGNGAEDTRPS
Insulin receptor, sequence (P15127 764-1383 limits assumed): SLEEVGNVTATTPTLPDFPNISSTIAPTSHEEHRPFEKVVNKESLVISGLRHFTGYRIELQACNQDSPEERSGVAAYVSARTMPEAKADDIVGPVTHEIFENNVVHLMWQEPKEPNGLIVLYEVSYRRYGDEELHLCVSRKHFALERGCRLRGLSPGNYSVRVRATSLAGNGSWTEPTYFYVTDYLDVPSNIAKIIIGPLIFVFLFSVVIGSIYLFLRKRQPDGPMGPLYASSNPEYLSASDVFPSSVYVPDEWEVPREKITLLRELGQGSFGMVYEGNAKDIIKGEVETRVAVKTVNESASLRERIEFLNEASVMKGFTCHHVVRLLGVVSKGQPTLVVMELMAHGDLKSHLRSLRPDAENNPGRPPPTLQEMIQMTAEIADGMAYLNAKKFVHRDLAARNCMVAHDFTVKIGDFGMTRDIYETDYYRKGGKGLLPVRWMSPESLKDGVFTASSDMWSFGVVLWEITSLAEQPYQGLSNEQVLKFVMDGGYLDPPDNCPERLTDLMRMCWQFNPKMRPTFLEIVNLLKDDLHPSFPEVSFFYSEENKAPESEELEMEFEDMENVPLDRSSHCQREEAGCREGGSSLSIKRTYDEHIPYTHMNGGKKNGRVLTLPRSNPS

[2] = DRUGMATRIX: Interleukin IL-1 radioligand binding (ligand: [125I] interleukin 1beta); format: cell membranes, Membrane; conditions: nih3t3; Not Active = under 50% inhibition at 10 µM
[3] = DRUGMATRIX: Nicotinic Acetylcholine radioligand binding (ligand: [125I] Epibatidine); format: cell membranes, Membrane; conditions: imr-32; Not Active = under 50% inhibition at 10 µM
[4] = target: Protein kinase C alpha type (Homo sapiens, UniProt P17252); format: cell-based; conditions: sf9;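 further: inhibition of PKCalpha kinase activity measured in an enzyme assay with histone as the phosphorylation substrate; in other assays of this panel Not Active means under 50% inhibition at 10 µM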

Substance-P receptor, sequence (P25103 whole entry): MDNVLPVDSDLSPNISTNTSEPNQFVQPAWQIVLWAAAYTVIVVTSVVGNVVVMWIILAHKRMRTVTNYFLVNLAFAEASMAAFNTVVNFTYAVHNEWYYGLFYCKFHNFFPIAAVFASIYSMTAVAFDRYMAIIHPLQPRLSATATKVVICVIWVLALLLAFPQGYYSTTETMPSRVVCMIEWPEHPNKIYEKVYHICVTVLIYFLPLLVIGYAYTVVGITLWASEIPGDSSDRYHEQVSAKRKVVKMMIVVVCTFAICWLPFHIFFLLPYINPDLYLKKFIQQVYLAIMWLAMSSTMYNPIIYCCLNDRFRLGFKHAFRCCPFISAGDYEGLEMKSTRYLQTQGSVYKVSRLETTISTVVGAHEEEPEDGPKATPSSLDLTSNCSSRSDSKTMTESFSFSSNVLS

Compound | IC50 (Substance-P receptor) | IC50 [1] | IC50 (D(3) dopamine receptor; cho) | IC50 (Insulin receptor) | IC50 [2] | Ki [2] | IC50 [3] | Ki [3] | IC50 [4] | IC50 (D(3) dopamine receptor; read-out: IC50) | Ki (D(3) dopamine receptor; read-out: Ki) | Ki (Substance-P receptor)
COc1cc(N)nc2[nH]c(-c3ccc(F)cc3)c(-c3ccncc3)c12 | Not Active | Not Active | Not Active | Not Active | Not Active | Not Active | Not Active | Not Active | Not Active |  |  | 
CNS(=O)(=O)Cc1ccc2[nH]cc(CCN(C)C)c2c1 | Not Active | Not Active | Not Active | Not Active | Not Active | Not Active | Not Active | Not Active | Not Active |  |  | 
CCCc1nn(C)c2c(=O)[nH]c(-c3cc(S(=O)(=O)N4CCN(C)CC4)ccc3OCC)nc12 | Not Active | Not Active | Not Active | Not Active | Not Active | Not Active | Not Active | Not Active | Not Active |  |  | 
COc1ccc(/C=C/C(=O)Nc2ccccc2C(=O)O)cc1OC | Not Active | Not Active | Not Active | Not Active | Not Active | Not Active | Not Active | Not Active | Not Active |  |  | 
CCOC(N)=O | Not Active | Not Active | Not Active | Not Active | Not Active | Not Active | Not Active | Not Active | Not Active |  |  | 
CC(=O)Nc1nnc(S(N)(=O)=O)s1 [ACETAZOLAMIDE] | Not Active | Not Active | Not Active | Not Active |  |  |  |  | Not Active |  |  | 
O=c1[nH]c2ccccc2n1CCCN1CCC(n2c(=O)[nH]c3cc(Cl)ccc32)CC1 [DOMPERIDONE] | Not Active | Not Active |  | Not Active |  |  |  |  | Not Active |  |  | 
CC1=C(CC(=O)O)c2cc(F)ccc2/C1=C\c1ccc(S(C)(=O)=O)cc1 [EXISULIND] | Not Active | Not Active | Not Active | Not Active | Not Active | Not Active | Not Active | Not Active | Not Active |  |  | 
CC(C)OC(=O)C(C)(C)Oc1ccc(C(=O)c2ccc(Cl)cc2)cc1 [FENOFIBRATE] | Not Active | Not Active |  | Not Active |  |  |  |  | Not Active |  |  | 
OCCN1CCN(CCCN2c3ccccc3Sc3ccc(C(F)(F)F)cc32)CC1 [FLUPHENAZINE] | Not Active | Not Active |  | Not Active |  |  |  |  | Not Active |  |  | 
CN1C2CCCC1CC(NC(=O)c1nn(C)c3ccccc13)C2 (configuration not stated) [GRANISETRON] | Not Active | Not Active | Not Active | Not Active |  |  |  |  | Not Active |  |  | 
Nc1nc2c(c(=O)[nH]1)N(C=O)C(CNc1ccc(C(=O)N[C@@H](CCC(=O)O)C(=O)O)cc1)CN2 (some centres not stated) [LEUCOVORIN] | Not Active | Not Active | Not Active | Not Active | Not Active | Not Active | Not Active | Not Active | Not Active |  |  | 
C[C@@H](O)[C@H]1C(=O)N2C(C(=O)O)=C(S[C@@H]3CN[C@H](C(=O)N(C)C)C3)[C@H](C)[C@H]12 [MEROPENEM] | Not Active | Not Active | Not Active | Not Active | Not Active | Not Active | Not Active | Not Active | Not Active |  |  | 
CC[C@@H](CO)NC(=O)[C@@H]1C=C2c3cccc4c3c(cn4C)C[C@H]2N(C)C1 [METHYSERGIDE] | Not Active | Not Active |  | Not Active |  |  |  |  | Not Active | 172 nM | 59 nM | 
CCN(CC)CC#CCOC(=O)C(O)(c1ccccc1)C1CCCCC1 (configuration not stated) [OXYBUTYNIN] |  | Not Active |  | Not Active |  |  |  |  | Not Active |  |  | Not Active
O=P(O)(O)C(O)(Cc1cccnc1)P(=O)(O)O [RISEDRONIC ACID] | Not Active | Not Active | Not Active | Not Active | Not Active | Not Active | Not Active | Not Active | Not Active |  |  | 

Compound | IC50 (Substance-P receptor) | IC50 [1] | IC50 (D(3) dopamine receptor; cho) | IC50 (Insulin receptor) | IC50 [2] | Ki [2] | IC50 [3] | Ki [3] | IC50 [4] | IC50 (D(3) dopamine receptor; read-out: IC50) | Ki (D(3) dopamine receptor; read-out: Ki) | Ki (Substance-P receptor)
CN(CCOc1ccc(CC2SC(=O)NC2=O)cc1)c1ccccn1 (configuration not stated) [ROSIGLITAZONE] | Not Active | Not Active | Not Active | Not Active | Not Active | Not Active | Not Active | Not Active | Not Active |  |  | 
C=C(C)[C@H]1Cc2c(ccc3c2O[C@@H]2COc4cc(OC)c(OC)cc4[C@@H]2C3=O)O1 [ROTENONE] | Not Active | Not Active | Not Active | Not Active | Not Active | Not Active | Not Active | Not Active | Not Active |  |  | 
C#CCN(C)[C@H](C)Cc1ccccc1 [SELEGILINE] | Not Active | Not Active | Not Active | Not Active | Not Active | Not Active | Not Active | Not Active | Not Active |  |  | 
CO[C@H]1C[C@@H]2CC[C@@H](C)[C@@](O)(O2)C(=O)C(=O)N2CCCC[C@H]2C(=O)O[C@H]([C@H](C)C[C@@H]2CC[C@@H](O)[C@H](OC)C2)CC(=O)[C@H](C)/C=C(\C)[C@@H](O)[C@@H](OC)C(=O)[C@H](C)C[C@H](C)/C=C/C=C/C=C/1C [SIROLIMUS] | Not Active | Not Active | Not Active | Not Active | Not Active | Not Active | Not Active | Not Active | Not Active |  |  | 
CN[C@@H]1[C@H](O)[C@H](NC)[C@H]2O[C@@]3(O)C(=O)C[C@@H](C)O[C@H]3O[C@@H]2[C@H]1O [SPECTINOMYCIN] | Not Active | Not Active | Not Active | Not Active | Not Active | Not Active | Not Active | Not Active | Not Active |  |  | 
Nc1ccc(S(=O)(=O)Nc2ncccn2)cc1 [SULFADIAZINE] | Not Active | Not Active | Not Active | Not Active | Not Active | Not Active | Not Active | Not Active | Not Active |  |  | 
COc1ncnc(NS(=O)(=O)c2ccc(N)cc2)c1OC [SULFADOXINE] | Not Active | Not Active | Not Active | Not Active | Not Active | Not Active | Not Active | Not Active | Not Active |  |  | 
Nc1ccc(S(=O)(=O)Nc2nccs2)cc1 [SULFATHIAZOLE] | Not Active | Not Active | Not Active | Not Active | Not Active | Not Active | Not Active | Not Active | Not Active |  |  | 
C[C@]12CC[C@H]3[C@@H](CCC4=CC(=O)CC[C@@]43C)[C@@H]1CC[C@@H]2O [TESTOSTERONE] | Not Active | Not Active | Not Active | Not Active | Not Active | Not Active | Not Active | Not Active | Not Active |  |  | 
CC(C)(C)NC[C@H](O)COc1nsnc1N1CCOCC1 [TIMOLOL] | Not Active | Not Active | Not Active | Not Active | Not Active | Not Active | Not Active | Not Active | Not Active |  |  | 
CCS(=O)(=O)CCn1c([N+](=O)[O-])cnc1C [TINIDAZOLE] | Not Active | Not Active | Not Active | Not Active | Not Active | Not Active | Not Active | Not Active | Not Active |  |  | 
C[C@@H]1C[C@H]2[C@@H]3CCC4=CC(=O)C=C[C@]4(C)C3=CC[C@]2(C)[C@H]1C(=O)CN1CCN(c2cc(N3CCCC3)nc(N3CCCC3)n2)CC1 [TIRILAZAD] | Not Active | Not Active | Not Active | Not Active | Not Active | Not Active | Not Active | Not Active | Not Active |  |  | 
NC[C@H]1O[C@H](O[C@H]2[C@H](O)[C@@H](O[C@H]3O[C@H](CO)[C@@H](O)[C@H](N)[C@H]3O)[C@H](N)C[C@@H]2N)[C@H](N)C[C@@H]1O [TOBRAMYCIN] | Not Active | Not Active | Not Active | Not Active | Not Active | Not Active | Not Active | Not Active | Not Active |  |  | 
O=c1n(CCCN2CCN(c3cccc(Cl)c3)CC2)nc2ccccn12 [TRAZODONE] | Not Active | Not Active |  | Not Active |  |  |  |  | Not Active |  |  | 
O=C(O)C(Cl)(Cl)Cl [TRICHLOROACETIC ACID] | Not Active | Not Active | Not Active | Not Active | Not Active | Not Active | Not Active | Not Active | Not Active |  |  | 
COc1ccc(CN2CCNCC2)c(OC)c1OC [TRIMETAZIDINE] | Not Active | Not Active | Not Active | Not Active | Not Active | Not Active | Not Active | Not Active | Not Active |  |  | 
